Read-outs that look alike come from different tables or passages of the source.
Tests used:
Assay type in all cases: biochemical
[1] = biological target: PI3K-gamma (Homo sapiens, UniProt P48736); assay: PI3K-gamma fluorescence polarization assay
Summary of the method: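 Inhibition is derived from a polarization signal: after a 1 h, 25° C kinase step (25 μM ATP, 2.5 μM diC8-PIP2, pH 7), EDTA stops the reaction and the GRP1 PH domain/TMR-IP4 pair reports lipid product.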

[2] = biological target: T1, human TOR (Homo sapiens, UniProt P42345); assay: mTOR enzyme assay (DELFIA, His6-S6K substrate); details: read-out: mTOR Kinase Avg. IC50
T1 construct: FLAG

[3] = biological target: PI3K-alpha (Homo sapiens, UniProt P42336); assay: PI3K-alpha fluorescence polarization assay; details: read-out: PI3Kα Avg. IC50
PI3K-alpha, sequence (P42336 whole entry, species assumed): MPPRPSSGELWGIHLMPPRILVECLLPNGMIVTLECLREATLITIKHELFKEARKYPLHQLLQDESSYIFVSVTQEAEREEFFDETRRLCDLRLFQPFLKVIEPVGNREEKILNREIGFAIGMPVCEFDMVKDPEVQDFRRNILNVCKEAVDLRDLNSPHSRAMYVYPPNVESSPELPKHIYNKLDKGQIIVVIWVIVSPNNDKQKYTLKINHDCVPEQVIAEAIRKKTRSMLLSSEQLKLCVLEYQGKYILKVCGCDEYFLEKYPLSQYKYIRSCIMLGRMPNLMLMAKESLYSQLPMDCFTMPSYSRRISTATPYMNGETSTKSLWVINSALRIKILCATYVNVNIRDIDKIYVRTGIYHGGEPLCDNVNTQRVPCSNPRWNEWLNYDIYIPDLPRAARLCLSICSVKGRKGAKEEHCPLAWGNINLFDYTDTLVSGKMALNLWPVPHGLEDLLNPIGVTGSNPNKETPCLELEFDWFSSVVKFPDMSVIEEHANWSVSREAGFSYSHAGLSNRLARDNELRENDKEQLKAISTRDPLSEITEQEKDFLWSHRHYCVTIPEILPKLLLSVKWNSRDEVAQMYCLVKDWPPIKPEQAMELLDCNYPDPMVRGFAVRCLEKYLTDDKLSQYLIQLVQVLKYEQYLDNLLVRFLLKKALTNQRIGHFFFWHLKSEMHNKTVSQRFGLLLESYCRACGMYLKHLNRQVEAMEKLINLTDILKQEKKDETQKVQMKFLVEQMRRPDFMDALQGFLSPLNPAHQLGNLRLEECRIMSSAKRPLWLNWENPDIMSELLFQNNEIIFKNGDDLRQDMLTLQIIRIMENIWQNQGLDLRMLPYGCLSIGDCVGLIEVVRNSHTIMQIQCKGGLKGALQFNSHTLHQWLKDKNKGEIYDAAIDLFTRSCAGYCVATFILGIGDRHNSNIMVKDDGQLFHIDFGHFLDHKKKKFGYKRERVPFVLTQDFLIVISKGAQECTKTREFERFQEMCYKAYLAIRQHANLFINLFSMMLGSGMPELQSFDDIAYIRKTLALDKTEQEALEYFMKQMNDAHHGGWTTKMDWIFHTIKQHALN
PI3K-alpha, sequence (P27986 whole entry partner, species assumed): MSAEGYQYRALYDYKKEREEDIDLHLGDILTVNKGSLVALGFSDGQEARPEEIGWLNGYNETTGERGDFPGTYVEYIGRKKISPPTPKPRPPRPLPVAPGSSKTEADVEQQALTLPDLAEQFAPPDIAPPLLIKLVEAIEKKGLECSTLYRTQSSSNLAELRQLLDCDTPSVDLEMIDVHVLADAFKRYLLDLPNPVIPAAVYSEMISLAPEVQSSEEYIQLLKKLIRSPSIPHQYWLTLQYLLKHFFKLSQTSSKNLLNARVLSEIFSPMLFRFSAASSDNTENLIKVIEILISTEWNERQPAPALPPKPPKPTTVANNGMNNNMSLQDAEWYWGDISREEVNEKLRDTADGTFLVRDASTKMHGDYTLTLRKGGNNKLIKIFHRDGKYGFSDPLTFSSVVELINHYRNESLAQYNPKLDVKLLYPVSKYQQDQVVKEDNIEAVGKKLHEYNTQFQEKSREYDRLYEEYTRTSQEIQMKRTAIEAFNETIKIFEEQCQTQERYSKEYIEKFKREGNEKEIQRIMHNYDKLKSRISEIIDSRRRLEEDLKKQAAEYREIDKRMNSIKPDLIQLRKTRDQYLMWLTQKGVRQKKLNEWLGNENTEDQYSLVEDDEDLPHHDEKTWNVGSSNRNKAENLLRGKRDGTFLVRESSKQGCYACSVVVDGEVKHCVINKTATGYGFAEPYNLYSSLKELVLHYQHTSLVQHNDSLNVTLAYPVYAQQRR

PI3K-gamma, sequence (P48736 whole entry, species assumed, the tested form may be a part): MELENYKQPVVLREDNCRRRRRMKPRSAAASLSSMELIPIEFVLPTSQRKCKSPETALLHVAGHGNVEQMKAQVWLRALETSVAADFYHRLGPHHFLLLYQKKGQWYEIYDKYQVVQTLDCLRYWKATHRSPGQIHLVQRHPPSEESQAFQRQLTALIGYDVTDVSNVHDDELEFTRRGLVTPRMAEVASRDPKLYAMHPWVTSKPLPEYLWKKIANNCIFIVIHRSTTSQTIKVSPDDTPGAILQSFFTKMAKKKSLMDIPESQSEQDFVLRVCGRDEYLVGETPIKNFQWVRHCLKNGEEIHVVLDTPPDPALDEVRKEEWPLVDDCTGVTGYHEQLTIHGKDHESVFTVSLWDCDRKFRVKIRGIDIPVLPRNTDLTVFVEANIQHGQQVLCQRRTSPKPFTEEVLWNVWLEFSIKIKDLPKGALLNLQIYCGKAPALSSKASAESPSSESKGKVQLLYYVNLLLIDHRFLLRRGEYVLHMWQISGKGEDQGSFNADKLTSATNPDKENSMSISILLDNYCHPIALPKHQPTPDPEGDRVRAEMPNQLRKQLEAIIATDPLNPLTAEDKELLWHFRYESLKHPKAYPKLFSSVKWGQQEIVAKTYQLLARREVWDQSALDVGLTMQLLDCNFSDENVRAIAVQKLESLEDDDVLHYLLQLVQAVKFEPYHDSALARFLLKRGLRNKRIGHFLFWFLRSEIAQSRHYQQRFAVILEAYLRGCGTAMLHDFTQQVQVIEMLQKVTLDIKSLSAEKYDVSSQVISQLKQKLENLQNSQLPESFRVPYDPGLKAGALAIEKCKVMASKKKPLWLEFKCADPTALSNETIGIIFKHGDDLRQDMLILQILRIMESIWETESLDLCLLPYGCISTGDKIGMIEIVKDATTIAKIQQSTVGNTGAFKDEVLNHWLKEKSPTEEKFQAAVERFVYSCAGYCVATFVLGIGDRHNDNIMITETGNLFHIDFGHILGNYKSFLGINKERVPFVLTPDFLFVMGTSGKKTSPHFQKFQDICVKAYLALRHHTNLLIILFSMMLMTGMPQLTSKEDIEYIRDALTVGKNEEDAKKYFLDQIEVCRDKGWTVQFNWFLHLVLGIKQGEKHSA

Compound | IC50 ([1]; PI3Kγ Avg. IC50) [nM] | IC50 [2] [nM] | IC50 [3] [nM] | IC50 ([1]; read-out: PI3Kγ Avg. IC50) [nM]
COc1ccc2c(c1)c(/C=C1\Oc3cc(O)cc(O)c3C1=O)c(-c1cncnc1)n2CCN1CCN(C)CC1 [Example 463, (2Z)-4,6-Dihydroxy-2-({5-methoxy-1-[2-(4-methylpiperazin-1-yl)ethyl]-2-pyrimidin-5-yl-1H-indol-3-yl}methylene)-1-benzofuran-3(2H)-one] | 971 | 2000 | 51.5 | 
COCCn1c(-c2ccccc2)c(C=C2Oc3cc(O)cc(O)c3C2=O)c2ccccc21 [Example 151, 4,6-dihydroxy-2-{[1-(2-methoxyethyl)-2-phenyl-1H-indol-3-yl]methylene}-1-benzofuran-3(2H)-one] | 4220 | 710 | 2110 | 
COc1cc(F)c2[nH]c(-c3c(C)nn(C)c3C)c(/C=C3\Oc4ccc(NC(=O)Nc5ccc(C(=O)N6CCN(C)C(C)C6)cc5)cc4C3=O)c2c1 (stereo not drawn) [Compound 730, 1-{4-[(3,4-dimethylpiperazin-1-yl)carbonyl]phenyl}-3-[(2Z)-2-{[7-fluoro-5-methoxy-2-(1,3,5-trimethyl-1H-pyrazol-4-yl)-1H-indol-3-yl]methylidene}-3-oxo-2,3-dihydro-1-benzofuran-5-yl]urea] | 1.9 | 3 | 0.65 | 
Cn1cc(C=C2Oc3cc(O)cc(O)c3C2=O)c2cc([N+](=O)[O-])ccc21 [Example 228, 4,6-dihydroxy-2-[(1-methyl-5-nitro-1H-indol-3-yl)methylene]-1-benzofuran-3(2H)-one] | > 10000 | 980 | 3570 | 
COc1ccc2c(c1)c(/C=C1\Oc3cc(O)cc(O)c3C1=O)c(C(=O)N(C)C)n2CCn1ccnc1 [Example 314, 3-[(Z)-(4,6-Dihydroxy-3-oxo-1-benzofuran-2(3H)-ylidene)methyl]-1-[2-(1H-imidazol-1-yl)ethyl]-5-methoxy-N,N-dimethyl-1H-indole-2-carboxamide] | 116 | 155 | 29 | 
CN(C)Cc1ccc(-c2ccc(-c3cccc4c3c(/C=C3\Oc5cc(O)cc(O)c5C3=O)cn4C)cc2)cc1 [Example 301, (2Z)-2-[(4-{4′-[(Dimethylamino)methyl]biphenyl-4-yl}-1-methyl-1H-indol-3-yl)methylene]-4,6-dihydroxy-1-benzofuran-3(2H)-one] | 2310 | 125 | 1230 | 
CNC(=O)Nc1ccc2c(c1)C(=O)/C(=C/c1c(-c3c(C)nn(C)c3C)[nH]c3c(C)cc(OC)cc13)O2 [Compound 726, 1-[(2Z)-2-{[5-methoxy-7-methyl-2-(1,3,5-trimethyl-1H-pyrazol-4-yl)-1H-indol-3-yl]methylidene}-3-oxo-2,3-dihydro-1-benzofuran-5-yl]-3-methylurea] | 13.7 | 18 | 1.37 | 
COc1ccc2[nH]c(-c3c(C)nn(C)c3C)c(/C=C3\Oc4ccc(NC(=O)Nc5ccc(NC(=O)CCN(C)C)cc5)cc4C3=O)c2c1 [Compound 691, N-[4-({[(2Z)-2-{[5-methoxy-2-(1,3,5-trimethyl-1H-pyrazol-4-yl)-1H-indol-3-yl]methylidene}-3-oxo-2,3-dihydro-1-benzofuran-5-yl]carbamoyl}amino)phenyl]-N3,N3-dimethyl-b-alaninamide] | 2.1 | 1 | 0.25 | 
COc1ccc2c(c1)c(/C=C1\Oc3cc(O)ccc3C1=O)c(C(=O)N1CCOCC1)n2CCN1CCN(C)CC1 [Example 412, (2Z)-6-Hydroxy-2-({5-methoxy-1-[2-(4-methylpiperazin-1-yl)ethyl]-2-(morpholin-4-ylcarbonyl)-1H-indol-3-yl}methylene)-1-benzofuran-3(2H)-one] | 888 | 2800 | 10.5 | 
COc1ccc2c(c1)c(/C=C1\Oc3ccc(NC(=O)Nc4ccc(C(=O)N(C)CCN(C)C)cc4)cc3C1=O)c(C)n2CCN1CCN(C)CC1 [Compound 649, N-[2-(dimethylamino)ethyl]-4-({[(2Z)-2-({5-methoxy-2-methyl-1-[2-(4-methylpiperazin-1-yl)ethyl]-1H-indol-3-yl}methylene)-3-oxo-2,3-dihydro-1-benzofuran-5-yl]carbamoyl}amino)-N-methylbenzamide] | 19 | 31 | 0.4 | 
(2Z)-2-[(4-Bromo-1-methyl-1H-indol-3-yl)methylene]-4,6-dimethoxybenzofuran-3(2H)-one [Example 408] |  | > 20000 | 3310 | 1940
CCn1c(C)c(/C=C2\Oc3ccc(NC(=O)Nc4ccc(CCCN(C)C)cc4)cc3C2=O)c2cc(OC)ccc21 [Compound 671, 1-{4-[3-(dimethylamino)propyl]phenyl}-3-{(2Z)-2-[(1-ethyl-5-methoxy-2-methyl-1H-indol-3-yl)methylidene]-3-oxo-2,3-dihydro-1-benzofuran-5-yl}urea] | 25 | 220 | 4 | 
CN(C)CCCn1c(-c2ccccc2)c(C=C2Oc3cc(O)cc(O)c3C2=O)c2ccccc21 [Example 156, 2-({1-[3-(dimethylamino)propyl]-2-phenyl-1H-indol-3-yl}methylene)-4,6-dihydroxy-1-benzofuran-3(2H)-one] | 6000 | 1600 | 1290 | 
O=C1C(=Cc2c[nH]c3c(Cl)cccc23)Oc2cc(O)cc(O)c21 [Example 173, 2-[(7-chloro-1H-indol-3-yl)methylene]-4,6-dihydroxy-1-benzofuran-3(2H)-one] | > 10000 | 17000 | 766 | 
CN1CCN(c2cccc3c2c(/C=C2\Oc4cc(O)cc(O)c4C2=O)cn3C)CC1 [Example 439, (2Z)-4,6-dihydroxy-2-{[1-methyl-4-(4-methylpiperazin-1-yl)-1H-indol-3-yl]methylene}-1-benzofuran-3(2H)-one] | > 10000 | 33.8 | 4280 | 
CNC(=O)Nc1ccc2c(c1)C(=O)/C(=C/c1c(C3CCCCC3)[nH]c3ccc(OC)cc13)O2 [Compound 641, 1-{(2Z)-2-[(2-cyclohexyl-5-methoxy-1H-indol-3-yl)methylene]-3-oxo-2,3-dihydro-1-benzofuran-5-yl}-3-methylurea] | 8 | 10 | 1.6 | 
COc1ccc2c(c1)c(/C=C1\Oc3cc(O)cc(Cl)c3C1=O)c(C)n2CCN1CCN(C)CC1 [Example 467, (2Z)-4-Chloro-6-hydroxy-2-({5-methoxy-2-methyl-1-[2-(4-methylpiperazin-1-yl)ethyl]-1H-indol-3-yl}methylene)-1-benzofuran-3(2H)-one] | 1790 | 425 | 50.5 | 
CNC(=O)Nc1ccc2c(c1)C(=O)/C(=C/c1c(-c3c(C)nn(CCOC)c3C)[nH]c3ccc(OC)cc13)O2 [Compound 709, 1-[(2Z)-2-({5-methoxy-2-[1-(2-methoxyethyl)-3,5-dimethyl-1H-pyrazol-4-yl]-1H-indol-3-yl}methylidene)-3-oxo-2,3-dihydro-1-benzofuran-5-yl]-3-methylurea] | 248 | 43 | 47 | 
CNC(=O)Nc1ccc2c(c1)C(=O)/C(=C/c1c(-c3ccc(CN(C)C)cc3)n(CCN3CCN(C)CC3)c3ccc(OC)cc13)O2 [Compound 630, 1-{(2Z)-2-[(2-{4-[(dimethylamino)methyl]phenyl}-5-methoxy-1-[2-(4-methylpiperazin-1-yl)ethyl]-1H-indol-3-yl)methylidene]-3-oxo-2,3-dihydro-1-benzofuran-5-yl}-3-methylurea] | 157 | 200 | 1.15 | 
CCn1c(C)c(/C=C2\Oc3ccc(NC(=O)Nc4ccc(N(C)C(=O)CCN(C)C)cc4)cc3C2=O)c2cc(OC)ccc21 [Compound 694, N-{4-[({(2Z)-2-[(1-ethyl-5-methoxy-2-methyl-1H-indol-3-yl)methylidene]-3-oxo-2,3-dihydro-1-benzofuran-5-yl}carbamoyl)amino]phenyl}-N,N3,N3-trimethyl-b-alaninamide] | 95 | 155 | 4 | 
CNC(=O)Nc1ccc2c(c1)C(=O)/C(=C/c1c(-c3cnn(C)c3)[nH]c3c(F)cc(OC)cc13)O2 [Compound 718, 1-[(2Z)-2-{[7-fluoro-5-methoxy-2-(1-methyl-1H-pyrazol-4-yl)-1H-indol-3-yl]methylidene}-3-oxo-2,3-dihydro-1-benzofuran-5-yl]-3-methylurea] | 9.5 | 2 | 2.75 | 
O=C1C(=Cc2c(-c3ccncc3)[nH]c3ccccc23)Oc2cc(O)cc(O)c21 [Example 203, 4,6-dihydroxy-2-[(2-pyridin-4-yl-1H-indol-3-yl)methylene]-1-benzofuran-3(2H)-one] | 6620 | 150 | 1410 | 
Cn1cc(/C=C2\Oc3cc(O)cc(O)c3C2=O)c2c(-c3ccc(-c4ccc(CN)cc4)cc3)cccc21 [Example 300, (2Z)-2-({4-[4′-(Aminomethyl)biphenyl-4-yl]-1-methyl-1H-indol-3-yl}methylene)-4,6-dihydroxy-1-benzofuran-3(2H)-one] | 9500 | 132 | 2860 | 
CCn1c(C)c(/C=C2\Oc3ccc(NC(=O)Nc4ccc(C(=O)N5CCC(N(C)C)CC5)cc4)cc3C2=O)c2cc(OC)ccc21 [Compound 650, 1-(4-{[4-(dimethylamino)piperidin-1-yl]carbonyl}phenyl)-3-{(2Z)-2-[(1-ethyl-5-methoxy-2-methyl-1H-indol-3-yl)methylene]-3-oxo-2,3-dihydro-1-benzofuran-5-yl}urea] | 3 | 31 | 0.4 | 

— patent US20090311217A1, “3-SUBSTITUTED-1H-INDOLE COMPOUNDS, THEIR USE AS MTOR KINASE AND PI3 KINASE INHIBITORS, AND THEIR SYNTHESES” (priority 2008, published 2009)
